Several values for one entry are separate records, joined by “and”; a condition that tells them apart may be missing. Equal values may be shown once.
Key:
[1] = target: T1, UDP-glucuronosyltransferase 2B7 (Homo sapiens, UniProt P16662); assay: Specific activity of expressed human recombinant UGT2B7Y; assay type: ADME; settings: recombinant enzyme
T1 sequence (P16662 whole entry): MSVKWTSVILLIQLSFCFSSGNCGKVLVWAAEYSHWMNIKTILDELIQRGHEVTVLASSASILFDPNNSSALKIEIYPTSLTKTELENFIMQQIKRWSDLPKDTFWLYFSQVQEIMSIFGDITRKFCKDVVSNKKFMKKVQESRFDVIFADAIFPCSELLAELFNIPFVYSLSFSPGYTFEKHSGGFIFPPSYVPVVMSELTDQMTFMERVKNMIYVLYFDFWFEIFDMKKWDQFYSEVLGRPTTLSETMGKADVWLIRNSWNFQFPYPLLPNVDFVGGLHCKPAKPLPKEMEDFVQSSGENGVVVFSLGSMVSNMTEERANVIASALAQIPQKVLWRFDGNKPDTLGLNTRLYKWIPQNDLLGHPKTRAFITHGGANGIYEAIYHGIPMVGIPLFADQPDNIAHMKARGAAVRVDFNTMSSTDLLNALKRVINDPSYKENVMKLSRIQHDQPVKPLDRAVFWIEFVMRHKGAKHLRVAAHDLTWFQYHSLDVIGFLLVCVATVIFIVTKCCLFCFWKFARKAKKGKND

[2] = target: T1, UDP-glucuronosyltransferase 2B7; assay: Specific activity of expressed human recombinant UGT2B7H; assay type: ADME; settings: recombinant enzyme

Structure (SMILES) | Activity [1] | Activity [2]
C=C1CC[C@@]2(O)[C@H]3Cc4ccc(O)c5c4[C@@]2(CCN3CC2CC2)[C@H]1O5 | 625 pm/min/mg | 380 pm/min/mg and 412 pm/min/mg
CN1CC[C@]23c4c5ccc(O)c4O[C@H]2[C@@H](O)C=C[C@H]3[C@H]1C5 (stereo in doubt; (+)) [MORPHINE] | 160 pm/min/mg | –
CN1CC[C@]23c4c5ccc(O)c4O[C@H]2[C@@H](O)C=C[C@H]3[C@H]1C5 (stereo in doubt; (-)) [MORPHINE] | 3719 pm/min/mg | 2536 pm/min/mg and 2968 pm/min/mg
C[C@]12CC[C@@H](O)C[C@@H]1CC[C@@H]1[C@@H]2CC[C@]2(C)C(=O)CC[C@@H]12 (stereo in doubt; form 1) [ANDROSTERONE] | 94 pm/min/mg | 114 pm/min/mg
CN1CC[C@]23c4c5ccc(O)c4O[C@H]2C(=O)CC[C@H]3[C@H]1C5 (stereo in doubt; form 1) [HYDROMORPHONE] | 530 pm/min/mg | 617 pm/min/mg and 856 pm/min/mg
CN1CC[C@]23c4c5ccc(O)c4O[C@H]2C(=O)CC[C@H]3[C@H]1C5 (stereo in doubt; form 2) [HYDROMORPHONE] | 1550 pm/min/mg | –
C[C@]12CC[C@H]3[C@@H](CCC4=CC(=O)CC[C@@]43C)[C@@H]1CC[C@@H]2O (stereo in doubt; form 2) [TESTOSTERONE] | 0 pm/min/mg | 0 pm/min/mg
CC1CC[C@H](C(C)C)[C@@H](O)C1 (stereo partly drawn) [(+)-MENTHOL] | 247 pm/min/mg and 147 pm/min/mg | 255 pm/min/mg and 191 pm/min/mg
CC1(C)[C@H]2CC[C@]1(C)[C@H](O)C2 [(-)-BORNEOL] | 357 pm/min/mg and 174 pm/min/mg | 388 pm/min/mg and 227 pm/min/mg
CO[C@]12CC[C@@]3(C[C@@H]1[C@](C)(O)C(C)(C)C)[C@H]1Cc4ccc(O)c5c4[C@@]3(CCN1CC1CC1)[C@H]2O5 [BUPRENORPHINE] | – | 478 pm/min/mg and 280 pm/min/mg
COc1ccc2c3c1O[C@H]1[C@@H](O)C=C[C@H]4[C@@H](C2)N(C)CC[C@@]341 [CODEINE] | – | 80 pm/min/mg and 54 pm/min/mg
C[C@]12CC[C@H]3[C@@H](CCC4=CC(=O)CC[C@@]43C)[C@@H]1CC[C@H]2O [EPITESTOSTERONE] | 468 pm/min/mg and 240 pm/min/mg | 360 pm/min/mg
CN1CC[C@]23CCCC[C@H]2[C@H]1Cc1ccc(O)cc13 [LEVORPHANOL] | 33 pm/min/mg and 25 pm/min/mg | –
Oc1ccc2c3c1O[C@H]1[C@@H](O)CC[C@@]4(O)[C@@H](C2)N(CC2CCC2)CC[C@]314 [NALBUPHINE] | 1100 pm/min/mg | 758 pm/min/mg and 862 pm/min/mg
C=CCN1CC[C@]23c4c5ccc(O)c4O[C@H]2[C@@H](O)C=C[C@H]3[C@H]1C5 [NALORPHINE] | – | 1483 pm/min/mg and 1051 pm/min/mg
C=CCN1CC[C@]23c4c5ccc(O)c4O[C@H]2C(=O)CC[C@@]3(O)[C@H]1C5 [NALOXONE] | – | 2908 pm/min/mg and 3462 pm/min/mg
O=C1CC[C@@]2(O)[C@H]3Cc4ccc(O)c5c4[C@@]2(CCN3CC2CC2)[C@H]1O5 [NALTREXONE] | – | 670 pm/min/mg and 662 pm/min/mg
Oc1ccc2c3c1O[C@H]1c4oc5ccccc5c4C[C@@]4(O)[C@@H](C2)N(CC2CC2)CC[C@]314 [NALTRIBEN] | 150 pm/min/mg and 97 pm/min/mg | 0 pm/min/mg
Oc1ccc2c3c1O[C@H]1c4[nH]c5ccccc5c4C[C@@]4(O)[C@@H](C2)N(CC2CC2)CC[C@]314 [NALTRINDOLE] | 453 pm/min/mg | 349 pm/min/mg and 456 pm/min/mg
COc1ccc2c3c1O[C@H]1[C@@H](O)C=C[C@H]4[C@@H](C2)NCC[C@@]341 [NORCODEINE] | 29 pm/min/mg and 24 pm/min/mg | –
Oc1ccc2c3c1O[C@H]1[C@@H](O)C=C[C@H]4[C@@H](C2)NCC[C@@]341 [NORMORPHINE] | 80 pm/min/mg | –
CN1CC[C@]23c4c5ccc(O)c4O[C@H]2C(=O)CC[C@@]3(O)[C@H]1C5 [OXYMORPHONE] | 2300 pm/min/mg | 2944 pm/min/mg and 3139 pm/min/mg

Source: ChEMBL document CHEMBL1907987, “Human UDP-glucuronosyltransferases: metabolism, expression, and disease” (Annu Rev Pharmacol Toxicol, 2000)
